Laboratory results published in article PMC12892976, “Alkylation-based optimization of antifungal FPPS inhibitors yields a potent, broad-spectrum lipophilic zoledronate derivative” (mBio, 2025).
≈ marks a conversion by molar mass, not a printed value.

What was measured:
[1] = test system: Rhizopus oryzae; experiment: MIC broth microdilution (CLSI); assay type: cell-based; conditions: Rhizopus oryzae 04-14-364-1703
Experimental: (§1) Antifungal susceptibility was determined by broth microdilution according to the CLSI guidelines described in M27-Ed4 ([16]).

[2] = test system: Cryptococcus tetragattii; experiment: MIC broth microdilution (CLSI); assay type: cell-based; conditions: Cryptococcus tetragattii WM779
Experimental: as §1

[3] = test system: Paraphyton cookei; experiment: checkerboard drug interaction (FICI, MICc); conditions: in combination with ZOL;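 further: simplified diagonal checkerboard screen pairing an antifungal with an FPPS inhibitor, FICI computed under the Loewe additivity model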
Experimental: (§2) Drug interactions between antifungals and FPPS inhibitors were investigated using a simplified checkerboard diagonal screening method ([45]). […] FICIs were determined according to the Loewe additivity model ([17]).

[4] = test system: Nannizzia gypsea; experiment: MIC broth microdilution (CLSI); assay type: cell-based; conditions: Nannizzia gypsea R-131
Experimental: as §1

[5] = test system: Fusarium solani; experiment: MIC broth microdilution (CLSI); conditions: Fusarium solani 04-16-056-1862
Experimental: as §1

[6] = test system: Candida auris; experiment: MIC broth microdilution (CLSI); assay type: cell-based; conditions: Candida auris CDC-0384
Experimental: as §1

[7] = test system: Lomentospora prolificans; experiment: MIC broth microdilution (CLSI); assay type: cell-based; conditions: Lomentospora prolificans 80-16-101-2445
Experimental: as §1

[8] = test system: Fusarium oxysporum; experiment: checkerboard drug interaction (FICI, MICc); assay type: cell-based;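 further: simplified diagonal checkerboard screen pairing antifungals with FPPS inhibitors, FICI calculated under the Loewe additivity model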
Experimental: as §2

[9] = test system: Aspergillus terreus; experiment: MIC broth microdilution (CLSI); assay type: cell-based; conditions: Aspergillus terreus 75-16-089-2500
Experimental: as §1

[10] = test system: Epidermophyton floccosum; experiment: checkerboard drug interaction (FICI, MICc);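 further: simplified diagonal checkerboard screen pairing antifungals with FPPS inhibitors, FICI calculated under the Loewe additivity model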
Experimental: as §2

[11] = test system: Aspergillus frankstonensis; experiment: MIC broth microdilution (CLSI); assay type: cell-based; conditions: Aspergillus frankstonensis DTO 341-F3
Experimental: as §1

[12] = test system: Cryptococcus bacillisporus; experiment: MIC broth microdilution (CLSI); assay type: cell-based; conditions: Cryptococcus bacillisporus NIH179
Experimental: as §1

[13] = test system: Cryptococcus gattii; experiment: MIC broth microdilution (CLSI); assay type: cell-based; conditions: Cryptococcus gattii PNG27
Experimental: as §1

[14] = test system: Trichophyton tonsurans; experiment: MIC broth microdilution (CLSI); conditions: Trichophyton tonsurans R-168
Experimental: as §1

[15] = test system: Fusarium oxysporum; experiment: MIC broth microdilution (CLSI); assay type: cell-based; conditions: Fusarium oxysporum 07-200-3012
Experimental: as §1

[16] = test system: Candida tropicalis; experiment: MIC broth microdilution (CLSI); assay type: cell-based; conditions: Candida tropicalis M230640
Experimental: as §1

[17] = test system: Pichia kudriavzevii; experiment: checkerboard drug interaction (FICI, MICc); assay type: cell-based;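 further: antifungal plus FPPS inhibitor interactions tested in a simplified diagonal checkerboard screen, with FICI calculated under the Loewe additivity model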
Experimental: as §2

[18] = test system: Aspergillus felis; experiment: checkerboard drug interaction (FICI, MICc); assay type: cell-based;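 further: simplified diagonal checkerboard screen pairing antifungals with FPPS inhibitors, FICI calculated under the Loewe additivity model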
Experimental: as §2

[19] = test system: Aspergillus felis; experiment: MIC broth microdilution (CLSI); assay type: cell-based; conditions: Aspergillus felis IHE87256683D6
Experimental: as §1

[20] = test system: Candida dubliniensis; experiment: MIC broth microdilution (CLSI); assay type: cell-based; conditions: Candida dubliniensis M230642
Experimental: as §1

[21] = test system: Nannizzia nana; experiment: MIC broth microdilution (CLSI); assay type: cell-based; conditions: Nannizzia nana R-133
Experimental: as §1

[22] = test system: Nannizzia nana; experiment: checkerboard drug interaction (FICI, MICc); assay type: cell-based;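 further: simplified diagonal checkerboard screen pairing antifungals with FPPS inhibitors, FICI calculated under the Loewe additivity model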
Experimental: as §2

[23] = test system: Aspergillus lentulus; experiment: checkerboard drug interaction (FICI, MICc); assay type: cell-based;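 further: simplified diagonal checkerboard screen pairing antifungals with FPPS inhibitors, with the interaction index calculated under the Loewe additivity model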
Experimental: as §2

[24] = test system: Cryptococcus deneoformans; experiment: checkerboard drug interaction (FICI, MICc); assay type: cell-based
Experimental: as §2

[25] = test system: Trichophyton interdigitale; experiment: checkerboard drug interaction (FICI, MICc);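 further: simplified diagonal checkerboard screen pairing antifungals with FPPS inhibitors, FICI values calculated under the Loewe additivity model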
Experimental: as §2

[26] = test system: Aspergillus niger; experiment: MIC broth microdilution (CLSI); assay type: cell-based; conditions: Aspergillus niger 111
Experimental: as §1

[27] = test system: Epidermophyton floccosum; experiment: MIC broth microdilution (CLSI); assay type: cell-based; conditions: Epidermophyon floccosum R-113
Experimental: as §1

[28] = test system: Rhizopus oryzae; experiment: checkerboard drug interaction (FICI, MICc); assay type: cell-based
Experimental: as §2

[29] = test system: Candida dubliniensis; experiment: checkerboard drug interaction (FICI, MICc); assay type: cell-based
Experimental: as §2

[30] = test system: Pichia kudriavzevii; experiment: MIC broth microdilution (CLSI); assay type: cell-based; conditions: Pichia kudriavzavii ATCC 6258
Experimental: Antifungal susceptibility was determined by broth microdilution according to the CLSI guidelines described in M27-Ed4 ([16]). […] MFC was determined by back-plating drug-treated cultures from MIC broths onto SDA plates. The MFC was defined as the lowest concentration from which no colonies could be cultured.

[31] = test system: Aspergillus lentulus; experiment: MIC broth microdilution (CLSI); assay type: cell-based; conditions: Aspergillus lentulus DTO 341-G7
Experimental: as §1

[32] = test system: Lomentospora prolificans; experiment: checkerboard drug interaction (FICI, MICc)
Experimental: as §2

[33] = test system: Scedosporium apiospermum; experiment: MIC broth microdilution (CLSI); assay type: cell-based; conditions: Scedosporium apiospermum 04-16-022-2268
Experimental: as §1

[34] = test system: Nannizzia gypsea; experiment: checkerboard drug interaction (FICI, MICc);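 further: simplified diagonal checkerboard screen pairing antifungals with FPPS inhibitors, FICI derived using the Loewe additivity model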
Experimental: as §2

[35] = test system: Microsporum canis; experiment: MIC broth microdilution (CLSI); conditions: Microsporum canis R-232
Experimental: as §1

[36] = test system: Aspergillus terreus; experiment: checkerboard drug interaction (FICI, MICc); assay type: cell-based;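 further: simplified diagonal checkerboard screen pairing antifungals with FPPS inhibitors, FICI derived by the Loewe additivity model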
Experimental: as §2

[37] = test system: Cryptococcus bacillisporus; experiment: checkerboard drug interaction (FICI, MICc); assay type: cell-based;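 further: interaction of antifungals with FPPS inhibitors assessed by a simplified diagonal checkerboard screen, with FICI computed under the Loewe additivity model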
Experimental: as §2

## C[C@@H](c1ncncc1F)[C@](O)(Cn1cncn1)c1ccc(F)cc1F [VOR]
[1]
  MIC / MEC: 16 µg/mL (≈ 45.8 µM)
[2]
  MIC / MEC: 0.13 µg/mL (≈ 0.372 µM)
[3]
  antifungal MICc: 0.125
[4]
  MIC / MEC: 0.25 µg/mL (≈ 0.716 µM)
[5]
  MIC / MEC: 1 µg/mL (≈ 2.86 µM)
[6]
  MIC / MEC: 2 µg/mL (≈ 5.73 µM)
[7]
  MIC / MEC: 16 µg/mL (≈ 45.8 µM)
[8]; in combination with 10-ZOL
  antifungal MICc: 1
[8]; in combination with ZOL
  antifungal MICc: 4
[9]
  MIC / MEC: 0.25 µg/mL (≈ 0.716 µM)
[10]; in combination with 10-ZOL
  antifungal MICc: 0.032
[10]; in combination with ZOL
  antifungal MICc: 0.25
[11]
  MIC / MEC: 2 µg/mL (≈ 5.73 µM)
[12]
  MIC / MEC: 0.06 µg/mL (≈ 0.172 µM)
[13]
  MIC / MEC: 0.06 µg/mL (≈ 0.172 µM)
[14]
  MIC / MEC: 0.13 µg/mL (≈ 0.372 µM)
[15]
  MIC / MEC: 4 µg/mL (≈ 11.5 µM)
[16]
  MIC / MEC: 0.13 µg/mL (≈ 0.372 µM)
[17]; in combination with 10-ZOL
  antifungal MICc: 0.5
[17]; in combination with ZOL
  antifungal MICc: 1
[18]; in combination with 10-ZOL
  antifungal MICc: 0.5
[18]; in combination with ZOL
  antifungal MICc: 0.5
[19]
  MIC / MEC: 2 µg/mL (≈ 5.73 µM)
[20]
  MIC / MEC: 0.06 µg/mL (≈ 0.172 µM)
[21]
  MIC / MEC: 0.06 µg/mL (≈ 0.172 µM)
[22]; in combination with 10-ZOL
  antifungal MICc: 0.0625
[22]; in combination with ZOL
  antifungal MICc: 0.0625
[23]; in combination with 10-ZOL
  antifungal MICc: 0.5
[23]; in combination with ZOL
  antifungal MICc: 0.5
[24]; in combination with 10-ZOL
  antifungal MICc: 0.063
[24]; in combination with ZOL
  antifungal MICc: 0.0625
[25]; in combination with 10-ZOL
  antifungal MICc: 0.063
[25]; in combination with ZOL
  antifungal MICc: 0.0625
[26]
  MIC / MEC: 1 µg/mL (≈ 2.86 µM)
[27]
  MIC / MEC: 0.25 µg/mL (≈ 0.716 µM)
[28]; in combination with 10-ZOL
  antifungal MICc: 8
[28]; in combination with ZOL
  antifungal MICc: 8
[29]; in combination with 10-ZOL
  antifungal MICc: 0.033
[29]; in combination with ZOL
  antifungal MICc: 0.0125
[30]
  MIC / MEC: 0.5 µg/mL (≈ 1.43 µM)
[31]
  MIC / MEC: 4 µg/mL (≈ 11.5 µM)
[32]; in combination with 10-ZOL
  antifungal MICc: 2
[32]; in combination with ZOL
  antifungal MICc: 16
[33]
  MIC / MEC: 1 µg/mL (≈ 2.86 µM)
[34]; in combination with 10-ZOL
  antifungal MICc: 0.25
[34]; in combination with ZOL
  antifungal MICc: 0.0625
[35]
  MIC / MEC: 0.03 µg/mL (≈ 0.0859 µM)
[36]; in combination with 10-ZOL
  antifungal MICc: 0.25
[36]; in combination with ZOL
  antifungal MICc: 0.125
[37]; in combination with 10-ZOL
  antifungal MICc: 0.03
[37]; in combination with ZOL
  antifungal MICc: 0.125
